{"source": "patent US20260014182A1", "about": "“METHOD OF TREATING CANCER” (M.T.3, Inc., priority 2019, published 2026)", "origin": "cited, not measured here", "data": [{"test_system": "angiogenesis", "details": "in-vitro test, used with radiation", "values": [{"smiles": "CCCCCCCCCCCCCC(=O)OCCCO[C@H]1O[C@H](CS(=O)(=O)[O-])[C@@H](O)[C@H](O)[C@H]1O.[Na+]", "note": "[αSQAP C14:0]", "angiogenesis": "inhibited"}, {"smiles": "CCCCCCCCCCCCCCCCCCCCCC(=O)OCCCO[C@H]1O[C@H](CS(=O)(=O)[O-])[C@@H](O)[C@H](O)[C@H]1O.[Na+]", "note": "[αSQAP C22:0]", "angiogenesis": "inhibited"}, {"smiles": "CCCCCCCCCC(=O)OCCCO[C@H]1O[C@H](CS(=O)(=O)[O-])[C@@H](O)[C@H](O)[C@H]1O.[Na+]", "note": "[αSQAP C10:0]", "angiogenesis": "inhibited"}, {"smiles": "CCCCCCCCCCCCCCCCCC(=O)OCCCO[C@@H]1O[C@H](CS(=O)(=O)[O-])[C@@H](O)[C@H](O)[C@H]1O.[Na+]", "note": "[βSQAP C18:0]", "angiogenesis": "inhibited"}]}]}
